The target of series [1] is T1, GlyT1 (Homo sapiens, UniProt P48067).
T1 sequence (P48067 1-706): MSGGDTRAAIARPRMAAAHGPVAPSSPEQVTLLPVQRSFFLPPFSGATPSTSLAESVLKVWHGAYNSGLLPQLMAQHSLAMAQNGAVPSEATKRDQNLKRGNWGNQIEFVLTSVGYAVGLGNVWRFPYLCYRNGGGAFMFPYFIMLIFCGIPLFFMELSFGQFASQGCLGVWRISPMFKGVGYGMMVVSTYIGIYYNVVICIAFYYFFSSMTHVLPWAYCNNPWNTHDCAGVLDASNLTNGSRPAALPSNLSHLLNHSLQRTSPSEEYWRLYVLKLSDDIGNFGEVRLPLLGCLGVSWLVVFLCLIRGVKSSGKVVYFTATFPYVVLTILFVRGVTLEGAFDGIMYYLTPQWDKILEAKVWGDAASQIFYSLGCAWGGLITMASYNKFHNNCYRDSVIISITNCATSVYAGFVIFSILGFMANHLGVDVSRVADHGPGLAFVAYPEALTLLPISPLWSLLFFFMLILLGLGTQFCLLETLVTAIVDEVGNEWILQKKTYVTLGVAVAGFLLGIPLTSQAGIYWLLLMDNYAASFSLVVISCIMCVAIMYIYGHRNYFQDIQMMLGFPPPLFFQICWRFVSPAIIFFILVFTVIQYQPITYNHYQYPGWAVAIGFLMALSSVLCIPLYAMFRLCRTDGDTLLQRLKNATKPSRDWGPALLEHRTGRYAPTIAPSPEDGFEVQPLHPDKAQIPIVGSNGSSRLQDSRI
The conditions noted are these: ref 13-15 (1 and 2), ref 5-8 (NFPS); cited from earlier work.

For series [2], the system named is prepulse inhibition (PPI) of the rodent acoustic startle response. Kind of series: prepulse inhibition. In kind it is in vivo. The conditions noted are these: rat, 30 mg/kg p.o.
Series [3] deals with T1, GlyT1. The conditions noted are these: 30 mg/kg oral; cited from earlier work.
The conditions of series [4]: data reported for Merck's 2; cited from earlier work.
The conditions of series [5]: data reported for Merck's 2; cited from earlier work. This is another data set of the same source.
Series [6] concerns the target T1, GlyT1. Nature of the series: GlyT1 inhibition, [14C]-glycine uptake assay. In kind it is cell-based. The note with it: for loss in GlyT1 potency relative to piperidine analog: 4a vs 2, 4b vs 1.
The test system of the next series is CYP (isoforms not named). Kind of series: CYP profile. Type of series: in vitro ADME.
Series [7] in a line: in vitro intrinsic clearance, rat. In kind it is in vitro ADME. The conditions noted are these: from in vitro intrinsic clearance.
Another series concerns the target T2, GlyT2 (Homo sapiens, UniProt Q9Y345).
T2 sequence (Q9Y345 1-797): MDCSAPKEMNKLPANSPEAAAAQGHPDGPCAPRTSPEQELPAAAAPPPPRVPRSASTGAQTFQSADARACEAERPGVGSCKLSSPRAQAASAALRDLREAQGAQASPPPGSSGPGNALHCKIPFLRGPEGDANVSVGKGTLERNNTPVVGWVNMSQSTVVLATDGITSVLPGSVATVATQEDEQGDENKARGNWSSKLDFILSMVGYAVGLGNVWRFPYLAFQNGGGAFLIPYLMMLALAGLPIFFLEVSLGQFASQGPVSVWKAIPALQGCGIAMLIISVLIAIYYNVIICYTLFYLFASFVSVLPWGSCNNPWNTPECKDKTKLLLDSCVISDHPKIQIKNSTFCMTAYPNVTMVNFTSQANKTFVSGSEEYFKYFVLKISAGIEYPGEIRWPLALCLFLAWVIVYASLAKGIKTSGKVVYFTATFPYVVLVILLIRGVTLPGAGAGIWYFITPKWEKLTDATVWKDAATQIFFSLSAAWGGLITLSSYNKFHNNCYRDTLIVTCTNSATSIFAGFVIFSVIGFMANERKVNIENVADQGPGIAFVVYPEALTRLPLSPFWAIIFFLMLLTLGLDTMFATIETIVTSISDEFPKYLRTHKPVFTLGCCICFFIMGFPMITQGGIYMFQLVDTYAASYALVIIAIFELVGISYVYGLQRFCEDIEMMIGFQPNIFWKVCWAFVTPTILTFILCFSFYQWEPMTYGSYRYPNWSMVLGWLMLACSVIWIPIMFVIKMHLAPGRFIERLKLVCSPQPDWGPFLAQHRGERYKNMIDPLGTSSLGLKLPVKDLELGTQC
Kind of series: GlyT2 inhibition. In kind it is cell-based.

In another series the target is CYP3A4 (Homo sapiens, UniProt P08684). Kind of series: CYP inhibition. Type of series: in vitro ADME.
Chain of CYP3A4 (P08684 whole entry): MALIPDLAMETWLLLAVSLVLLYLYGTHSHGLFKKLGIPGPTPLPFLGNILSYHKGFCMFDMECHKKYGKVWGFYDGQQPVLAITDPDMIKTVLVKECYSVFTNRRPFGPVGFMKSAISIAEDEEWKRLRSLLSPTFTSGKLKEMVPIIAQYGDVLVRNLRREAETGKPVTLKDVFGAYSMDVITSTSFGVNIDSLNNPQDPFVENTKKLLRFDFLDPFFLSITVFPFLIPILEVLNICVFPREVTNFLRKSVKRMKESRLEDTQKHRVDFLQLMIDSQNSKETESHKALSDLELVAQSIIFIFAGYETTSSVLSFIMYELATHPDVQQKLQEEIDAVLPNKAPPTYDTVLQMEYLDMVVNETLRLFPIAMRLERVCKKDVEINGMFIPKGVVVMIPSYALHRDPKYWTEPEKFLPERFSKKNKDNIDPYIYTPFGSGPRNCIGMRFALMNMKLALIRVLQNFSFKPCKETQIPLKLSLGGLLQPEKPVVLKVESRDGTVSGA
Series [8] relates to 68 GPCRs, ion channels and transporters. Kind of series: Eurofin Lead Profiling panel of radioligand binding assays. The conditions noted are these: @10 μM, 68 targets.
Series [9] is described as follows: in vitro intrinsic clearance, human. In kind it is in vitro ADME. The note with it: from in vitro intrinsic clearance.
Series [10] is described as follows: fraction unbound in human plasma. In kind it is in vitro ADME. The note with it: fu (hum).
A further series can be described thus: stability in rat plasma. Type of series: in vitro ADME. The conditions noted are these: 4 hours at 37 °C.
Series [11] in a line: brain tissue distribution study. Type of series: in vivo. The conditions noted are these: rat.

pIC50: −log10 of the molar value.

One may read the pIC50 as the negative decadic logarithm of the IC50, by convention in mol/L. A high value points to a low IC50. By fraction unbound is commonly meant free concentration divided by total concentration. Higher therefore signals much free substance.

Regarding `CCCS(=O)(=O)N1CCC(c2ccccc2)([C@H](C)NC(=O)c2ccc(Cl)cc2Cl)CC1` [Compound 1], the “known mechanism of action with respect to glycine” value on GlyT1 [1] was “competitive”.
On to `CCS(=O)(=O)N1CCC(CNC(=O)c2ccc(Cl)cc2Cl)(CC2CC2)CC1` [Compound 2], for which, at GlyT1 [1], the “known mechanism of action with respect to glycine” value is given as “competitive”. Moreover, the “effect on basal startle amplitude during no-stimulus trials” value in series [2] is reported as “no effect”. Also, the occupancy on GlyT1 [3] is listed as more than 90%. Besides, the clearance in rat result in series [4] is reported as “moderate to high clearance”. Also, the clearance in dog result in series [5] is “low clearance”.
As for `CCS(=O)(=O)N1C[C@@H]2[C@H](C1)[C@@]2(CNC(=O)c1ccc(Cl)cc1Cl)CC1CC1` [Compound 4a], the “loss in GlyT1 potency relative to piperidine analog” value at GlyT1 [6] was 50 fold.
Same read-out and setting: next, `CCCS(=O)(=O)N1C[C@@H]2[C@H](C1)[C@@]2(CNC(=O)c1ccc(Cl)cc1Cl)CC1CC1` [Compound 4b]: ~ 150 fold.
Compound `Cn1cnc(S(=O)(=O)N2C[C@@H]3[C@H](C2)[C@@]3(CNC(=O)c2ccc(Cl)cc2Cl)c2ccccn2)c1` [Compound 10] showed a pIC50 with CYP (isoforms not named) of less than 4.52.
The same measure, in the same setting: the figure for `Cn1cnc(S(=O)(=O)N2C[C@@H]3[C@H](C2)[C@@]3(CNC(=O)c2ccccc2C(F)(F)F)c2ccccn2)c1` [Compound 11] is less than 4.52.
For the compound `Cn1cnc(S(=O)(=O)N2C[C@@H]3[C@H](C2)[C@@]3(CNC(=O)c2c(Cl)cccc2Cl)CC2CC2)c1` [Compound 12c], the “mechanism of inhibition with respect to glycine (Eadie-Hoffstee plot)” value at GlyT1 [6] ([14C]-glycine transport, 40 nM 12c) was “competitive”.
As for `Cn1cnc(S(=O)(=O)N2C[C@@H]3[C@H](C2)[C@@]3(CNC(=O)c2ccccc2C(F)(F)F)CC2CC2)c1` [Compound 12d], the “predicted hepatic clearance ClHEP” value was 43.0 mL/min/kg in series [7] and 17.7 mL/min/kg in series [9]. Also, the values for the negative logarithm of the IC50 (pIC50) against GlyT2 and against CYP3A4 were less than 4.52 and 4.83, respectively. Further, in series [2], the “effect on basal startle amplitude during no-stimulus trials” value is “no effect”. Moreover, the “inhibition against any target in the panel” value in [8] is given as not above 50%. In series [10], this compound had a fraction unbound of 0.068. Moreover, the “stability in rat plasma” value in the series “stability in rat plasma” is on record as “stable”. For the same compound, the “brain AUC0-6hr” value in [11] (10 mg/kg p.o. in 0.5% methocellulose) came to 0.956 µM·h; in [11] (10 mg/kg s.c. in 10% tween 80) it was 0.431 µM·h.

The values above are taken from paper PMC3951249 (Bioorganic & medicinal chemistry letters, 2014).
